Source: patent publication US5674979A, “Agent for inhibiting symmetrical proteins, in particular enzymes” (priority 1989, dated 1997)
Read-outs that look alike come from different tables or passages of the source. Non-standard residues stand in square brackets, D forms with d. Residues, ends and D or L forms follow the SMILES beside them.

Columns and labels:
[1] = system: HIV-1; details: H9 cells
Procedure: Compounds (a), (b), (c), (d) were tested in the molarity range from 0.1 μM to 1000 μM. Infectivity tests were carried out as follows: an HIV-1 suspension containing 10^2 infectious units was absorbed on to 5×10^6 H9 cells in a volume of 1 ml for 2 hours at 4° C. After this time, 9 ml of tissue culture medium with the required inhibitor concentration was added. The medium was exchanged with fresh medium plus inhibitor daily. Two control cultures were also prepared, one without inhibitor to determine the normal virus replication rate, the other containing inhibitor but no virus, to determine whether the substances were cytotoxic for H9 cells. […] The amount of virus antigen produced by the infected cells was measured daily using Elisa for eight days, indicating the amount of HIV-1 antigen in the tissue culture medium. After this, the cells were pelleted, washed in medium without inhibitor, and further incubated in inhibitor-less medium. The antigen production was measured on days 9 and 12 (ie 1 and […] after removal of the inhibitor). Virus production was also measured on days 7, 8, 9, and 12 by determining the amount of reverse transcriptase in the supernatant of the cell medium.

[2] = system: HIV-1
Procedure: Infectivity tests were carried out as follows: an HIV-1 suspension containing 10^2 infectious units was absorbed on to 5×10^6 H9 cells in a volume of 1 ml for 2 hours at 4° C. After this time, 9 ml of tissue culture medium with the required inhibitor concentration was added. The medium was exchanged with fresh medium plus inhibitor daily. Two control cultures were also prepared, one without inhibitor to determine the normal virus replication rate, the other containing inhibitor but no virus, to determine whether the substances were cytotoxic for H9 cells. […] The amount of virus antigen produced by the infected cells was measured daily using Elisa for eight days, indicating the amount of HIV-1 antigen in the tissue culture medium. After this, the cells were pelleted, washed in medium without inhibitor, and further incubated in inhibitor-less medium. The antigen production was measured on days 9 and 12 (ie 1 and 3 days after removal of the inhibitor). Virus production was also measured on days 7, 8, 9, and 12 by determining the amount of reverse transcriptase in the supernatant of the cell medium.

[3] = 0,1 μM, day 9 post infection, no inhibitor (after removal)
[4] = 0,1 μM, day 12 post infection, no inhibitor (after removal)
[5] = 1 μM, day 9 post infection, no inhibitor (after removal)
[6] = 1 μM, day 12 post infection, no inhibitor (after removal)
[7] = 10 μM, day 9 post infection, no inhibitor (after removal)
[8] = 10 μM, day 12 post infection, no inhibitor (after removal)
[9] = 100 μM, day 9 post infection, no inhibitor (after removal)
[10] = 100 μM, day 12 post infection, no inhibitor (after removal)
[11] = 1000 μM, day 9 post infection, no inhibitor (after removal)
[12] = 1000 μM, day 12 post infection, no inhibitor (after removal)

## CC(C)C[C@@H](NC(=O)[C@H](N)CC(N)=O)C(=O)N[C@@H](C(=O)NCC(=O)O)[C@H](C)O [A, H-(D)-Asn-(D)-Leu-(D)-Thr-Gly-OH] (H-[dN][dL][dT]G-OH)
[1]; 0,1 μM, day 1 post infection
  HIV-1 antigen production as measured in antigen capture ELISA: 0,060 o. D.
[1]; 0,1 μM, day 2 post infection
  HIV-1 antigen production as measured in antigen capture ELISA: 0,066 o. D.
[1]; 0,1 μM, day 3 post infection
  HIV-1 antigen production as measured in antigen capture ELISA: 0,062 o. D.
[1]; 0,1 μM, day 4 post infection
  HIV-1 antigen production as measured in antigen capture ELISA: 0,055 o. D.
[1]; 0,1 μM, day 5 post infection
  HIV-1 antigen production as measured in antigen capture ELISA: 0,058 o. D.
[1]; 0,1 μM, day 6 post infection
  HIV-1 antigen production as measured in antigen capture ELISA: 0,181 o. D.
[1]; 0,1 μM, day 7 post infection
  HIV-1 antigen production as measured in antigen capture ELISA: 0,363 o. D.
[1]; 0,1 μM, day 8 post infection
  HIV-1 antigen production as measured in antigen capture ELISA: 0,478 o. D.
[1]; [3]
  HIV-1 antigen production as measured in antigen capture ELISA: 0,737 o. D.
[1]; [4]
  HIV-1 antigen production as measured in antigen capture ELISA: 1,037 o. D.
[1]; 1 μM, day 1 post infection
  HIV-1 antigen production as measured in antigen capture ELISA: 0,064 o. D.
[1]; 1 μM, day 2 post infection
  HIV-1 antigen production as measured in antigen capture ELISA: 0,060 o. D.
[1]; 1 μM, day 3 post infection
  HIV-1 antigen production as measured in antigen capture ELISA: 0,075 o. D.
[1]; 1 μM, day 4 post infection
  HIV-1 antigen production as measured in antigen capture ELISA: 0,057 o. D.
[1]; 1 μM, day 5 post infection
  HIV-1 antigen production as measured in antigen capture ELISA: 0,053 o. D.
[1]; 1 μM, day 6 post infection
  HIV-1 antigen production as measured in antigen capture ELISA: 0,136 o. D.
[1]; 1 μM, day 7 post infection
  HIV-1 antigen production as measured in antigen capture ELISA: 0,213 o. D.
[1]; 1 μM, day 8 post infection
  HIV-1 antigen production as measured in antigen capture ELISA: 0,394 o. D.
[1]; [5]
  HIV-1 antigen production as measured in antigen capture ELISA: 0,694 o. D.
[1]; [6]
  HIV-1 antigen production as measured in antigen capture ELISA: 1,065 o. D.
[1]; 10 μM, day 1 post infection
  HIV-1 antigen production as measured in antigen capture ELISA: 0,061 o. D.
[1]; 10 μM, day 2 post infection
  HIV-1 antigen production as measured in antigen capture ELISA: 0,075 o. D.
[1]; 10 μM, day 3 post infection
  HIV-1 antigen production as measured in antigen capture ELISA: 0,069 o. D.
[1]; 10 μM, day 4 post infection
  HIV-1 antigen production as measured in antigen capture ELISA: 0,044 o. D.
[1]; 10 μM, day 5 post infection
  HIV-1 antigen production as measured in antigen capture ELISA: 0,064 o. D.
[1]; 10 μM, day 6 post infection
  HIV-1 antigen production as measured in antigen capture ELISA: 0,140 o. D.
[1]; 10 μM, day 7 post infection
  HIV-1 antigen production as measured in antigen capture ELISA: 0,256 o. D.
[1]; 10 μM, day 8 post infection
  HIV-1 antigen production as measured in antigen capture ELISA: 0,499 o. D.
[1]; [7]
  HIV-1 antigen production as measured in antigen capture ELISA: 0,727 o. D.
[1]; [8]
  HIV-1 antigen production as measured in antigen capture ELISA: 1,003 o. D.
[1]; 100 μM, day 1 post infection
  HIV-1 antigen production as measured in antigen capture ELISA: 0,068 o. D.
[1]; 100 μM, day 2 post infection
  HIV-1 antigen production as measured in antigen capture ELISA: 0,064 o. D.
[1]; 100 μM, day 3 post infection
  HIV-1 antigen production as measured in antigen capture ELISA: 0,065 o. D.
[1]; 100 μM, day 4 post infection
  HIV-1 antigen production as measured in antigen capture ELISA: 0,053 o. D.
[1]; 100 μM, day 5 post infection
  HIV-1 antigen production as measured in antigen capture ELISA: 0,057 o. D.
[1]; 100 μM, day 6 post infection
  HIV-1 antigen production as measured in antigen capture ELISA: 0,070 o. D.
[1]; 100 μM, day 7 post infection
  HIV-1 antigen production as measured in antigen capture ELISA: 0,361 o. D.
[1]; 100 μM, day 8 post infection
  HIV-1 antigen production as measured in antigen capture ELISA: 0,374 o. D.
[1]; [9]
  HIV-1 antigen production as measured in antigen capture ELISA: 0,915 o. D.
[1]; [10]
  HIV-1 antigen production as measured in antigen capture ELISA: 1,013 o. D.
[1]; 1000 μM, day 1 post infection
  HIV-1 antigen production as measured in antigen capture ELISA: 0,087 o. D.
[1]; 1000 μM, day 2 post infection
  HIV-1 antigen production as measured in antigen capture ELISA: 0,058 o. D.
[1]; 1000 μM, day 3 post infection
  HIV-1 antigen production as measured in antigen capture ELISA: 0,073 o. D.
[1]; 1000 μM, day 4 post infection
  HIV-1 antigen production as measured in antigen capture ELISA: 0,054 o. D.
[1]; 1000 μM, day 5 post infection
  HIV-1 antigen production as measured in antigen capture ELISA: 0,056 o. D.
[1]; 1000 μM, day 6 post infection
  HIV-1 antigen production as measured in antigen capture ELISA: 0,102 o. D.
[1]; 1000 μM, day 7 post infection
  HIV-1 antigen production as measured in antigen capture ELISA: 0,286 o. D.
[1]; 1000 μM, day 8 post infection
  HIV-1 antigen production as measured in antigen capture ELISA: 0,597 o. D.
[1]; [11]
  HIV-1 antigen production as measured in antigen capture ELISA: 0,899 o. D.
[1]; [12]
  HIV-1 antigen production as measured in antigen capture ELISA: 1,054 o. D.
[2]; 0,1 μM, day 7 post infection
  Reverse Transkriptase Determination: 3929 epm/ml
[2]; 0,1 μM, day 8 post infection
  Reverse Transkriptase Determination: 6914 epm/ml
[2]; [3]
  Reverse Transkriptase Determination: 14455 epm/ml
[2]; [4]
  Reverse Transkriptase Determination: 137470 epm/ml
[2]; 1 μM, day 7 post infection
  Reverse Transkriptase Determination: 4041 epm/ml
[2]; 1 μM, day 8 post infection
  Reverse Transkriptase Determination: 7460 epm/ml
[2]; [5]
  Reverse Transkriptase Determination: 9502 epm/ml
[2]; [6]
  Reverse Transkriptase Determination: 163130 epm/ml
[2]; 10 μM, day 7 post infection
  Reverse Transkriptase Determination: 4615 epm/ml
[2]; 10 μM, day 8 post infection
  Reverse Transkriptase Determination: 5381 epm/ml
[2]; [7]
  Reverse Transkriptase Determination: 12517 epm/ml
[2]; [8]
  Reverse Transkriptase Determination: 117910 epm/ml
[2]; 100 μM, day 7 post infection
  Reverse Transkriptase Determination: 5378 epm/ml
[2]; 100 μM, day 8 post infection
  Reverse Transkriptase Determination: 6407 epm/ml
[2]; [9]
  Reverse Transkriptase Determination: 12893 epm/ml
[2]; [10]
  Reverse Transkriptase Determination: 142240 epm/ml
[2]; 1000 μM, day 7 post infection
  Reverse Transkriptase Determination: 1529 epm/ml
[2]; 1000 μM, day 8 post infection
  Reverse Transkriptase Determination: 2121 epm/ml
[2]; [11]
  Reverse Transkriptase Determination: 1550 epm/ml
[2]; [12]
  Reverse Transkriptase Determination: 104660 epm/ml
